Test results published in the supplement of paper PMC10307832.

Legend:
Experiment in all cases: relative viability (nuclei count vs DMSO), 5 days (fraction); higher = more cells survive
Motesanib + Palbociclib = compound: CC1(C)CNc2cc(NC(=O)c3cccnc3NCc3ccncc3)ccc21 [Motesanib] + CC(=O)c1c(C)c2cnc(Nc3ccc(N4CCNCC4)cn3)nc2n(C2CCCC2)c1=O [Palbociclib] (partner 0.5 µM)
How it was run: (§1)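 Lung cancer cell lines, seeded in 1536-well plates, were treated the following day by pin tool with a single drug or with five library-drug doses (not always all listed) in √10 steps on top of a fixed anchor-drug dose. Cells were fixed and nuclei stained in one step after 5 days, and nuclei were counted. Relative viability is the nuclei count for treated wells divided by that for vehicle wells, reported as medians of duplicate plates.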

[1] = compound: C[C@@]1(C(=O)Nc2ccc(F)nc2)CCCN1c1nc(Nc2cc(C3CC3)n[nH]2)c2cccn2n1 + Nc1ncn([C@H]2C[C@H](O)[C@@H](CO)O2)c(=O)n1 [Decitabine] (partner 2 µM)
How it was run: as §1

Motesanib + Pemetrexed = compound: CC1(C)CNc2cc(NC(=O)c3cccnc3NCc3ccncc3)ccc21 [Motesanib] + Nc1nc2[nH]cc(CCc3ccc(C(=O)N[C@@H](CCC(=O)O)C(=O)O)cc3)c2c(=O)[nH]1 [Pemetrexed] (partner 0.2 µM)
How it was run: as §1

[2] = compound: C[C@@]1(C(=O)Nc2ccc(F)nc2)CCCN1c1nc(Nc2cc(C3CC3)n[nH]2)c2cccn2n1 + Cc1nc(NC(=O)N2CCC[C@H]2C(N)=O)sc1-c1ccnc(C(C)(C)C(F)(F)F)c1 [Alpelisib] (partner 2 µM)
How it was run: as §1

Row | Cell Line | relative viability (Motesanib + Palbociclib; first compound 0.01 µM) | relative viability (Motesanib + Palbociclib; first compound 0.03162 µM) | relative viability (Motesanib + Palbociclib; first compound 0.1 µM) | relative viability (Motesanib + Palbociclib; first compound 0.3162 µM) | relative viability (Motesanib + Palbociclib; first compound 1 µM) | relative viability ([1]; first compound 0.04 µM) | relative viability ([1]; first compound 0.1265 µM) | relative viability ([1]; first compound 0.4 µM) | relative viability ([1]; first compound 1.265 µM) | relative viability (Motesanib + Pemetrexed; first compound 0.01 µM) | relative viability (Motesanib + Pemetrexed; first compound 0.03162 µM) | relative viability (Motesanib + Pemetrexed; first compound 0.1 µM) | relative viability (Motesanib + Pemetrexed; first compound 1 µM) | relative viability ([2]; first compound 0.04 µM) | relative viability ([2]; first compound 0.1265 µM) | relative viability ([2]; first compound 0.4 µM) | relative viability ([2]; first compound 1.265 µM) | relative viability (Motesanib + Pemetrexed; first compound 0.3162 µM)
1 | HCC-78 | 0.442 | 0.467 | 0.478 | 0.511 | 0.56 | 0.624 | 0.564 | 0.587 | 0.394 | 0.902 | 0.897 | 0.858 | 0.906 | 0.321 | 0.196 | 0.23 | 0.257 | –
2 | IA-LM | – | – | – | – | – | – | – | – | – | – | – | – | – | 0.83 | 0.674 | 0.69 | 0.698 | –
3 | NCI-H322M | 0.486 | 0.439 | 0.48 | 0.508 | 0.466 | 0.658 | 0.533 | 0.494 | 0.547 | 0.681 | 0.627 | 0.556 | 0.605 | 0.694 | 0.539 | 0.557 | 0.895 | 0.691
4 | NCI-H3122 | 0.186 | 0.194 | 0.213 | 0.217 | 0.161 | 0.361 | 0.337 | 0.349 | 0.386 | 0.186 | 0.191 | 0.184 | 0.219 | 0.637 | 0.514 | 0.631 | 0.564 | 0.202
5 | COR-L23 | 0.297 | 0.26 | 0.272 | 0.273 | 0.32 | 0.413 | 0.412 | 0.315 | 0.267 | 0.186 | 0.198 | 0.187 | 0.184 | 0.721 | 0.711 | 0.563 | 0.412 | 0.197
6 | NCI-H2087 | – | – | 0.26 | 0.232 | 0.26 | 0.237 | 0.191 | 0.258 | 0.16 | – | – | 0.657 | 0.605 | 1.09 | 1.07 | 0.928 | 0.851 | 0.73
7 | LC-2-ad | 0.487 | 0.514 | 0.556 | 0.49 | 0.5 | 0.82 | 0.73 | 0.66 | 0.606 | 0.289 | 0.259 | 0.268 | 0.256 | 0.764 | 0.726 | 0.61 | 0.504 | 0.262
8 | NCI-H1915 | 0.541 | 0.522 | 0.545 | 0.508 | 0.575 | 0.266 | 0.278 | 0.251 | 0.258 | 0.54 | 0.484 | 0.451 | 0.442 | 1.09 | 1.08 | 1.04 | 1.06 | 0.463
9 | NCI-H1793 | 0.351 | 0.306 | 0.335 | 0.277 | 0.334 | 0.362 | 0.428 | 0.429 | 0.429 | 0.862 | 0.894 | 0.843 | 0.853 | 0.731 | 0.625 | 0.553 | 0.731 | 0.856
10 | NCI-H2023 | 0.365 | 0.378 | 0.361 | 0.385 | 0.401 | 0.234 | 0.228 | 0.177 | 0.139 | 0.224 | 0.201 | 0.245 | 0.263 | 0.407 | 0.374 | 0.376 | 0.407 | 0.217
11 | COR-L 105 | 0.393 | 0.45 | 0.401 | 0.438 | 0.448 | 0.697 | 0.547 | 0.541 | 0.588 | 1.19 | 0.96 | 1.34 | 1.33 | 0.871 | 0.805 | 0.689 | 0.806 | 1.12
12 | ChaGo-K-1 | 0.899 | 0.881 | 0.976 | 0.856 | 0.908 | 0.511 | 0.52 | 0.499 | 0.503 | 0.262 | 0.249 | 0.227 | 0.237 | – | – | – | – | 0.235
13 | NCI-H2342 | 0.508 | 0.52 | 0.539 | 0.527 | 0.554 | 0.685 | 0.636 | 0.559 | 0.671 | 0.8 | 0.748 | 0.795 | 0.912 | – | – | – | – | 0.794
14 | NCI-H1299 | – | – | – | – | – | – | – | – | – | – | – | – | – | 1.11 | 1.05 | 1.07 | 1.09 | –
15 | NCI-H1650 | 0.351 | 0.385 | 0.349 | 0.346 | 0.343 | 0.348 | 0.458 | 0.463 | 0.447 | 0.357 | 0.367 | 0.33 | 0.425 | – | – | – | – | 0.349
16 | SW 900 | 0.489 | 0.53 | 0.56 | 0.614 | 0.564 | 0.403 | 0.437 | 0.351 | 0.349 | 0.459 | 0.416 | 0.356 | 0.303 | – | – | – | – | 0.301
17 | NCI-H596 | – | – | – | – | – | 1.08 | 0.977 | 0.96 | 0.912 | 0.509 | 0.503 | 0.444 | 0.358 | 0.573 | 0.264 | 0.356 | 0.471 | 0.306
18 | NCI-H727 | 0.631 | 0.652 | 0.687 | 0.639 | 0.606 | 0.8 | 0.636 | 0.529 | 0.362 | – | – | – | – | 0.33 | 0.24 | 0.221 | 0.303 | –
19 | NCI-H1648 | 0.305 | – | – | 0.28 | 0.261 | 0.465 | 0.464 | 0.416 | 0.361 | 0.707 | – | – | 0.547 | – | – | – | – | 0.674
20 | NCI-H522 | 1.15 | 1.01 | 1 | 0.84 | 1.26 | 0.616 | 0.607 | 0.591 | 0.639 | 1.01 | 1.05 | 0.955 | 1.03 | – | – | – | – | 0.844
21 | A549 | – | – | – | – | – | 0.284 | 0.248 | 0.326 | 0.199 | – | – | – | – | 0.638 | 0.392 | 0.333 | 0.35 | –
22 | NCI-H1563 | – | – | – | – | – | – | – | – | – | 0.679 | 0.82 | 0.871 | 0.794 | 0.943 | 0.891 | 0.913 | 0.85 | 0.644
23 | ABC-1 | 0.633 | 0.541 | 0.7 | 0.938 | 0.763 | 1.01 | 0.714 | 0.628 | 0.785 | – | – | – | – | 0.875 | 0.845 | 0.659 | 0.945 | –
